ChEMBL document CHEMBL1125761, “Synthesis of water-soluble (aminoalkyl)camptothecin analogues: inhibition of topoisomerase I and antitumor activity” (J Med Chem, 1991)

Legend:
L1210 = experiment: Inhibitory activity […] bearing L1210 leukemia; type: functional, cell-based, Mus musculus
Mus musculus [1] = species on record: Mus musculus; experiment: Effect in increasing life span of mice bearing L1210 leukemia; type: functional
Mus musculus [2] = species on record: Mus musculus; experiment: Maximally tolerated dose in mice bearing L1210 leukemia.; type: functional
Mus musculus [3] = species on record: Mus musculus; experiment: Compound tested for maximally tolerated dose in mice bearing L1210 leukemia; No toxicity was observed; type: functional

Structure (SMILES) | IC50 (L1210; Mus musculus, L1210) | ILS (Mus musculus [1]) | MTD (Mus musculus [2]) | MTD (Mus musculus [3]) | IC50 (L1210; l1210)
CC[C@@]1(O)C(=O)OCc2c1cc1n(c2=O)Cc2cc3c(COCCN(C)C)c(O)ccc3nc2-1 | 180 nM | 188% | 50 µM/kg |  | 
CC[C@@]1(O)C(=O)OCc2c1cc1n(c2=O)Cc2cc3c(CNCCN(C)C)c(O)ccc3nc2-1 | 49 nM | >94% |  | 78 µM/kg | 
CC[C@@]1(O)C(=O)OCc2c1cc1n(c2=O)Cc2cc3cc(CN)ccc3nc2-1 | 90 nM | 112% | 160 µM/kg |  | 
CC[C@@]1(O)C(=O)OCc2c1cc1n(c2=O)Cc2cc3c(C[N+](C)(C)C)c(O)ccc3nc2-1 | 150 nM | >200% | 68 µM/kg |  | 
CC[C@@]1(O)C(=O)OCc2c1cc1n(c2=O)Cc2cc3c(CN4CCN(C)CC4)c(O)ccc3nc2-1 | 72 nM | >200% |  | 74 µM/kg | 
CC[C@@]1(O)C(=O)OCc2c1cc1n(c2=O)Cc2cc3ccccc3nc2-1 [CAMPTOTHECIN] | 23 nM | 118% | 22 µM/kg |  | 
CC[C@@]1(O)C(=O)OCc2c1cc1n(c2=O)Cc2cc3c(CN4CCC(N5CCCCC5)CC4)c(O)ccc3nc2-1 | 270 nM | >44% |  | 77 µM/kg | 
CC[C@@]1(O)C(=O)OCc2c1cc1n(c2=O)Cc2cc3cc(O)ccc3nc2-1 [HYDROXYCAMPTOTHECIN] |  | 78% | 21 µM/kg |  | 18 nM
CCc1c2c(nc3ccc(O)cc13)-c1cc3c(c(=O)n1C2)COC(=O)[C@]3(O)CC [7-ETHYL-10-HYDROXYCAMPTOTHECIN] |  | 144% | 86 µM/kg |  | 
CC[C@@]1(O)C(=O)OCc2c1cc1n(c2=O)Cc2cc3c(CN(C)c4ccccc4)c(O)ccc3nc2-1 | 69 nM | 138% | 83 µM/kg |  | 
CC[C@@]1(O)C(=O)OCc2c1cc1n(c2=O)Cc2cc3c(CNC4CC4)c(O)ccc3nc2-1 | 130 nM | 131% | 48 µM/kg |  | 
CC[C@@]1(O)C(=O)OCc2c1cc1n(c2=O)Cc2cc3c(CSCCN(C)C)c(O)ccc3nc2-1 | 12 nM | >112% |  | 76 µM/kg | 
CCC1(O)C(=O)OCc2c1cc1n(c2=O)Cc2c-1nc1ccc(CC#N)cc1c2C (stereo not drawn) | 7.5 nM | 106% | 6.4 µM/kg |  | 
CC[C@@]1(O)C(=O)OCc2c1cc1n(c2=O)Cc2cc3cc(C#N)ccc3nc2-1 | 80 nM | 100% | 7.8 µM/kg |  | 
CC[C@@]1(O)C(=O)OCc2c1cc1n(c2=O)Cc2cc3c(C=O)c(O)ccc3nc2-1 | 260 nM | >75% |  | 102 µM/kg | 
CC[C@@]1(O)C(=O)OCc2c1cc1n(c2=O)Cc2cc3c(CNCCO)c(O)ccc3nc2-1 | 250 nM | 62% | 82 µM/kg |  | 

Structure (SMILES) | IC50 (L1210; Mus musculus, L1210) | ILS (Mus musculus [1]) | MTD (Mus musculus [2]) | MTD (Mus musculus [3]) | IC50 (L1210; l1210)
CC[C@@]1(O)C(=O)OCc2c1cc1n(c2=O)Cc2cc3c(CC#N)c(O)ccc3nc2-1 | 400 nM | >200% | 28 µM/kg |  | 
CC[C@@]1(O)C(=O)OCc2c1cc1n(c2=O)Cc2cc3c(CN(C)C)c(O)ccc3nc2-1 [TOPOTECAN] |  | 173% | 30 µM/kg |  | 
CC[C@@]1(O)C(=O)OCc2c1cc1n(c2=O)Cc2cc3c(CN(C)C)cccc3nc2-1 | 65 nM | 88% | 29 µM/kg |  | 
CCC1(O)C(=O)OCc2c1cc1n(c2=O)Cc2c-1nc1ccc(CCN)cc1c2C (stereo not drawn) | 29 nM | >33% | 68 µM/kg |  | 
CCC1(O)C(=O)OCc2c1cc1n(c2=O)Cc2c-1nc1ccccc1c2CCNC (stereo not drawn) | 44 nM | 43% | 122 µM/kg |  | 
CC[C@@]1(O)C(=O)OCc2c1cc1n(c2=O)Cc2cc3c(CNC4CCCCC4)c(O)ccc3nc2-1 | 56 nM | >200% | 47 µM/kg |  | 
CC[C@@]1(O)C(=O)OCc2c1cc1n(c2=O)Cc2cc3c(N)cccc3nc2-1 [9-AMINOCAMPTOTHECIN] | 12 nM | 94% | 8.9 µM/kg |  | 
CCOCc1c(O)ccc2nc3c(cc12)Cn1c-3cc2c(c1=O)COC(=O)[C@]2(O)CC | 48 nM | 125% | 56 µM/kg |  | 
CC[C@@]1(O)C(=O)OCc2c1cc1n(c2=O)Cc2cc3c(CN4CCOCC4)cccc3nc2-1 | 690 nM | 144% | 29 µM/kg |  | 
CC[C@@]1(O)C(=O)OCc2c1cc1n(c2=O)Cc2cc3cc(P(=O)(O)O)ccc3nc2-1 | 26000 nM |  |  | 155 µM/kg | 
CCC1(O)C(=O)OCc2c1cc1n(c2=O)Cc2c-1nc1ccccc1c2CCN(C)C(=O)OCc1ccccc1 (stereo not drawn) | 62 nM | 62% | 128 µM/kg |  | 
CC[C@@]1(O)C(=O)OCc2c1cc1n(c2=O)Cc2cc3c(C)cccc3nc2-1 | 70 nM | >200% | 15 µM/kg |  | 
CC[C@@]1(O)C(=O)OCc2c1cc1n(c2=O)Cc2cc3c(CN4CCOCC4)c(O)ccc3nc2-1 | 370 nM | 83% | 190 µM/kg |  | 
CCc1c2c(nc3ccc(OC(=O)N4CCC(N5CCCCC5)CC4)cc13)-c1cc3c(c(=O)n1C2)COC(=O)[C@]3(O)CC [IRINOTECAN] |  |  | 245 µM/kg |  | 
CC[C@@]1(O)C(=O)OCc2c1cc1n(c2=O)Cc2cc3c(CCN)c(O)ccc3nc2-1 | 360 nM | 75% | 210 µM/kg |  | 
